{"source": "patent US20120328602A1", "about": "“COMPOSITIONS AND METHODS FOR TREATING CONDITIONS ASSOCIATED WITH CERAMIDE BIOSYNTHESIS” (priority 2007, published 2012)", "key": {"mice [1]": {"tested_on": "mice", "type": "in vivo", "conditions": "for responses to acute morphine in control groups vs control groups treated with drug: no repeated morphine; for development of antinociceptive tolerance: co-administration with morphine, i.p., FB1 1 mg/kg, myriocin 0.2 mg/kg, D609 40 mg/kg; for antinociceptive effects when tested alone: drug alone (not shown)"}, "mice [2]": {"tested_on": "mice", "test": "hot plate, morphine-induced antinociceptive tolerance (Examples 3-5)", "type": "in vivo, Male CD-1 mice", "conditions": "for development of tolerance, dose-dependence: co-administered with morphine, FB1 0.1-1 mg/kg/d, myriocin 0.1-0.4 mg/kg/d, D609 10-40 mg/kg/d; for development of tolerance, dose-dependence / hot plate latencies following s.c. saline / difference in responses to acute morphine (0.3-3 mg/kg), drug vs vehicle: n=10; for hot plate latencies following s.c. saline: day five, highest dose of drug, no morphine; for difference in responses to acute morphine (0.3-3 mg/kg), drug vs vehicle: highest dose over five days: FB1 1 mg/kg/d, myriocin 0.4 mg/kg/d, D609 40 mg/kg/d; for antinociceptive effects when tested alone: highest dose; for % MPE: tolerant mice, single i.p. dose fifteen minutes before acute morphine 3 mg/kg: FB1 1 mg/kg, myriocin 0.4 mg/kg, D609 40 mg/kg, n=6", "method": "Nociceptive thresholds were determined by measuring latencies (in seconds) of mice placed in a transparent glass cylinder on a hot plate (Ugo Basile, Italy) maintained at 52° C. Determination of antinociception was assessed between 7 and 10:00 A.M. All injections were given intra-peritoneally (i.p.) or subcutaneously (s.c.) in a volume of 0.1 and 0.3 ml, respectively, at approximately 7 A.M. and 4 P.M. Responses indicative of nociception included intermittent lifting and/or licking of the hindpaws or escape behavior. […] Results were expressed as percentage of maximum possible antinociceptive effect, which was calculated as follows: (response latency−baseline latency)/(cut-off latency−baseline latency)×100. A cut-off latency of twenty seconds was employed to prevent tissue damage. Ten mice per group were used and all experiments were conducted with the experimentors blinded to treatment conditions. […] The following experimental groups were used: […]\nVehicle (V) Group: In this group, mice were injected twice per day for four days with an i.p, injection of saline and a s.c. injection of saline."}, "[3]": {"biological_target": "T1, acid sphingomyelinase (ASMase) (Mus musculus, UniProt Q04519)", "T1 construct": "spinal cord tissues were homogenized in buffers for each specific assay; from tissue; host or cells: mouse spinal cord homogenate (Na acetate pH 5.0 lysis buffer)", "T1 sequence (Q04519 45-627)": "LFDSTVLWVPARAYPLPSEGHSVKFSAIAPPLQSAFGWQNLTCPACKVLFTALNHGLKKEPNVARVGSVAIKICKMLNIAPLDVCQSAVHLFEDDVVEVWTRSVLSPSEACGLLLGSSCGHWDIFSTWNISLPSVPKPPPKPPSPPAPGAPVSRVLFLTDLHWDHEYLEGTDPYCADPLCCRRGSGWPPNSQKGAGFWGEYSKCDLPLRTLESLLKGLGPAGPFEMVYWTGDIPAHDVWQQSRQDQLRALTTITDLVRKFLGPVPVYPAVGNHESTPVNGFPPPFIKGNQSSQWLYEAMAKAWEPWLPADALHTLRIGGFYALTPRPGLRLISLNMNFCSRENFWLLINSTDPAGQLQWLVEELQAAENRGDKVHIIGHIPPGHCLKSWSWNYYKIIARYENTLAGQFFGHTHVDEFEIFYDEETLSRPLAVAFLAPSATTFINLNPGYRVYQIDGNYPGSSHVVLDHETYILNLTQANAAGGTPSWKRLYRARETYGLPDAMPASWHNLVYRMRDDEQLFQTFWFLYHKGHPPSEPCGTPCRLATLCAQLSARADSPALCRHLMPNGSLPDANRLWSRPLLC", "test": "sphingomyelinase activity in spinal cord tissues, acid isoforms (Amplex Red kit)", "type": "in vivo, mice", "conditions": "D609 40 mg/kg/d co-administered with morphine", "procedure": "Sphingomyelinase activity was measure using Amplex® Red Sphingomyelinase Assay Kit (Molecular Probes, Eugene, Oreg.) following manufacturer's instructions. […] For the acid isoforms, Na acetate (100 mM and pH 5.0) lysis buffer was used. 2 mM EDTA was added to the lysis buffer for detection of the insoluble isoform. For neutral isoform detection, the tissues were homogenized in Hepes (20 mM, pH 7.4) lysis buffer. The kinetics for sphingomyelinase activity was measured in a fluorescence microplate reader for two hours followed by normalization per protein concentration of the sample. Hydrogen peroxide and sphingomyelinase were used as positive controls."}, "ceramide": {"tested_on": "ceramide", "test": "immunohistochemistry for ceramide in spinal cord (Example 3)", "conditions": "co-administered with morphine; FB1 1 mg/kg/d, myriocin 0.4 mg/kg/d, D609 40 mg/kg/d"}, "mice [4]": {"tested_on": "mice", "test": "Rotarod motor function test", "type": "in vivo", "conditions": "myriocin 0.4 mg/kg, FB1 1 mg/kg, D609 40 mg/kg; fifteen, thirty, and sixty minutes after administration; n=4; vs vehicle", "method": "Mice were trained before experimentation for their ability to remain for one-hundred twenty seconds on a revolving Rotarod apparatus (accelerating units increase from 3.5 to 35 rpm in five minutes). Mice (n=4 per group) were injected with an i.p. injection of the highest dose of FB1 (1 mg/kg), myriocin (0.4 mg/kg), D609 (40 mg/kg) used to block antinociceptive tolerance or its vehicle. Mice (n=4 per group) were tested and examined for motor […] on the Rotarod at fifteen, thirty, and sixty minutes after drug administration as described in the method section. The latency time to fall off the Rotarod was determined. A cut-off time of one-hundred twenty seconds was used."}, "acid SMase": {"biological_target": "T2, acid SMase (Homo sapiens, UniProt P17405)", "T2 sequence (P17405 47-631)": "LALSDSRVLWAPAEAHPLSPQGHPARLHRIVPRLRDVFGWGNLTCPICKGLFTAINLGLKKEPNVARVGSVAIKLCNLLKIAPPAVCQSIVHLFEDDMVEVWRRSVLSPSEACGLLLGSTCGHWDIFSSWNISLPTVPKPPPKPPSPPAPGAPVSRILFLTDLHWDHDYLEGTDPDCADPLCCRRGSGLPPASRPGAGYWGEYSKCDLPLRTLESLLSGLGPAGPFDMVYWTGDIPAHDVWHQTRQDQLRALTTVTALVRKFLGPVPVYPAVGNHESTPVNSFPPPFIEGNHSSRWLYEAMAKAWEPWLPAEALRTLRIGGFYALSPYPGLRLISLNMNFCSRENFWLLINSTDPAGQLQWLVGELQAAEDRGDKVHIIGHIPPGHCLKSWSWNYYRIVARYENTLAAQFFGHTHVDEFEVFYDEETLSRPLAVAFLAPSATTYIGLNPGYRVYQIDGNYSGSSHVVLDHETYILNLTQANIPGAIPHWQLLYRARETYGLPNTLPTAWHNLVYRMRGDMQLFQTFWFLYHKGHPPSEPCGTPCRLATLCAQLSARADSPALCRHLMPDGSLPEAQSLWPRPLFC", "conditions": "at 30 μM; cited from earlier work"}, "[5]": {"tested_on": "serine palmitoyl transferase (SPT)", "test": "serine palmitoyl transferase (SPT) activity", "type": "in vivo, mice", "conditions": "co-administration of morphine with myriocin 0.4 mg/kg/d, n=10", "method": "SPT activity was determined by measuring the incorporation of [^3H] serine into 3-ketosphinganine following the method previously described (Williams et al., 1984). The results were normalized by the samples' protein concentration."}, "neutral SMase": {"tested_on": "neutral SMase", "conditions": "at 5 mM GSH; cited from earlier work"}}, "note": "Read-outs that look alike come from different tables or passages of the source."}
{"compound": "S=C([S-])OC1CC2CC1C1CCCC21.[K+]", "note": "(stereo not drawn) [D609, tricyclodecan-9-xanthogenate]", "values": [{"measurement": "responses to acute morphine in control groups vs control groups treated with drug", "setting": "mice [1]", "result": "similar"}, {"measurement": "development of antinociceptive tolerance", "setting": "mice [1]", "result": "blocked antinociceptive tolerance"}, {"measurement": "antinociceptive effects when tested alone", "setting": "mice [1]", "result": "no antinociceptive effects"}, {"measurement": "development of tolerance, dose-dependence", "setting": "mice [2]", "result": "blocked in a dose-dependent manner"}, {"measurement": "hot plate latencies following s.c. saline", "setting": "mice [2]", "result": "six and seven"}, {"measurement": "difference in responses to acute morphine (0.3-3 mg/kg), drug vs vehicle", "setting": "mice [2]", "result": "statistically insignificant"}, {"measurement": "antinociceptive effects when tested alone", "setting": "mice [2]", "result": "none of FB1, myriocin, or D609 had antinociceptive effects"}, {"measurement": "% MPE", "setting": "mice [2]", "result": "11±2", "unit": "%"}, {"measurement": "increased activity of ASMase", "setting": "[3]", "result": "blocked the increased activity of ASMase"}, {"measurement": "ceramide immunostaining", "setting": "ceramide", "result": "blocked"}, {"measurement": "Rotarod motor function deficits", "setting": "mice [4]", "result": "did not show signs of Rotarod deficits"}]}
{"compound": "COc1ccc(CCN(C)CCCOc2ccc(S(=O)(=O)c3c(C(C)C)cn4ccccc34)cc2)cc1OC", "note": "[SR33557]", "values": [{"measurement": "inhibition of acid SMase", "setting": "acid SMase", "result": 72, "unit": "%"}]}
{"compound": "CCCCCCC(=O)CCCCCC/C=C/C[C@@H](O)[C@H](O)[C@@](N)(CO)C(=O)O", "note": "[myriocin]", "values": [{"measurement": "responses to acute morphine in control groups vs control groups treated with drug", "setting": "mice [1]", "result": "similar"}, {"measurement": "development of antinociceptive tolerance", "setting": "mice [1]", "result": "blocked antinociceptive tolerance"}, {"measurement": "antinociceptive effects when tested alone", "setting": "mice [1]", "result": "no antinociceptive effects"}, {"measurement": "development of tolerance, dose-dependence", "setting": "mice [2]", "result": "blocked"}, {"measurement": "hot plate latencies following s.c. saline", "setting": "mice [2]", "result": "six and seven"}, {"measurement": "difference in responses to acute morphine (0.3-3 mg/kg), drug vs vehicle", "setting": "mice [2]", "result": "statistically insignificant"}, {"measurement": "antinociceptive effects when tested alone", "setting": "mice [2]", "result": "none of FB1, myriocin, or D609 had antinociceptive effects"}, {"measurement": "% MPE", "setting": "mice [2]", "result": "13±2", "unit": "%"}, {"measurement": "activation of SPT", "setting": "[5]", "result": "blocked, as expected, the activation of SPT"}, {"measurement": "ceramide immunostaining", "setting": "ceramide", "result": "blocked"}, {"measurement": "Rotarod motor function deficits", "setting": "mice [4]", "result": "did not show signs of Rotarod deficits"}]}
{"compound": "N[C@@H](CCC(=O)N[C@@H](CS)C(=O)NCC(=O)O)C(=O)O", "note": "[Glutathione]", "values": [{"measurement": "inhibition of neutral SMase", "setting": "neutral SMase", "result": "greater than 95%"}]}
